Patent US20230141988A1, “PHARMACEUTICAL COMPOSITION FOR USE IN THE TREATMENT OF NEUROLOGICAL DISEASES” (Aclipse One Inc., priority 2020, published 2023)
Like-named read-outs stand apart in the source and are kept apart here.

Assays:
[1] = in vivo; settings: male, SD, rat
Description: The vehicle for the IN and PO formulation contained “0.1% sodium metabisulfite solution”.
The animals were about 8 weeks old with body weights of 200-300 g on the dosing date. The animals were housed in a 12-hour light/12-hour dark cycle environment and had free access to food and water. All animals were fasted overnight and fed after 4 hours collection.
For group 2, plasma, CSF and brain samples were collected at 0.5 and 1 h post dose.
For Group 2 (PO dose, 10.56 mg/kg), blood, CSF and brain samples were collected from 3 mice at two time point: 0.5 h and 1 h post dose.
For plasma samples, about 200 μL of blood samples were collected from each animal via jugular vein. These blood samples were placed into the tubes containing K2EDTA, and centrifuged at 3000 g for 10 minutes in a 4° C. centrifuge. The completion time from collection was less than 30 min. The stabilizing agent of ascorbic acid at 200 mg/mL was added in a proportion of 10% in plasma. The plasma samples were stored in a freezer at −75±15° C. prior to analysis. The completion time from collection was less than 60 min.
For brain and CSF samples, The animals were fully exsanguinated with a rising concentration of CO2 gas prior to CSF and brain collection. […]
For brain collection. […] The actual concentration was the detected value multiplied by the dilution factor. […]

[2] = subcutaneous […], plasma, mean of 3 mice
Description: 9 male C57BL/6J mice following administration of a single subcutaneous dose of 4.40 mg/kg. The vehicle for the subcutaneous formulation contained “0.1% sodium metabisulfite solution”.
(§1) Male C57BL/6J mice were purchased from Si Bei Fu Laboratory Animal Technology Co. Ltd (Beijing, China). The animals were about 8 weeks old with body weights of 20-30 g on the dosing date. The animals were housed in a 12-hour light/12-hour dark cycle environment and had free access to food and water. All animals were fasted overnight and fed after 4 hours collection.
For group 1, plasma samples were collected from dorsal metatarsal vein at each time point after subcutaneous administrations.
For plasma samples, about 30 μL or 300 μL of blood samples were collected from each animal via dorsal metatarsal vein or heart. These blood samples were placed into the tubes containing K2EDTA. And centrifugation at 3000 g for 10 minutes in a 4° C. centrifuge. The completion time from collection was less than 30 min. The stabilizing agent of ascorbic acid at 200 mg/mL was added in a proportion of 10% in plasma. The plasma samples were stored in a freezer at −75±15° C. prior to analysis. The completion time from collection was less than 60 min.
For brain and CSF samples, The animals were fully exsanguinated with a rising concentration of CO2 gas prior to CSF and brain collection.
For CSF collection, incision was made by scissors on the neck of the rats to expose the foramen magnum. A syringe fitted with a venoclysis needle was used to sample the CSF, the tip of the needle was inserted into the membrane of foramen magnum about 1-2 mm, and a negative pressure was applied by pulling a stopcock a small length of the syringe to extract CSF fluids into a tube. The stopcock was further actuated to until a sufficient amount of CSF was collected. There should be no blood in the CSF fluid. A stabilizing agent of ascorbic acid at 200 mg/mL was added in a proportion of 10% in CSF.
For brain collection. Brain samples were collected at an adopted time point, and washed 3 times with cold saline, then dried with clean gauze and put into the weighed tube, quick frozen in an ice box and kept at −75±15° C. All brain samples were weighted and homogenized with phosphate buffered saline (PBS) by brain weight (g) to PBS volume (mL) ratio 1:3 before analysis. The stabilizing agent of ascorbic acid at 200 mg/mL was added in a proportion of 10% in grain homogenate. The actual concentration was the detected value multiplied by the dilution factor. Brain samples were collected at designed time point, quickly homogenized and kept at −75±15° C.
Calibration standard working solutions were prepared at concentrations of 2, 5, 10, 20, 50, 100, 500, 1000, 5000 and 10000 ng/mL by serial dilution of the standard stock solution in 50% acetonitrile in water. Quality control working solutions at concentrations of 5, 10, 500 and 8000 ng/mL were prepared by serial dilution of the standard stock solution in 50% acetonitrile in water. These QC samples were prepared on the day of analysis in the same way as calibration standards.
For plasma and brain samples, 3 μL of each calibration standard working solution (2, 5, 10, 20, 50, 100, 500, 1000, 5000 and 10000 ng/mL) was added to 30 μL of the blank C57BL/6J mouse plasma or brain homogenate (with 10% 200 mg/mL ascorbic acid) to achieve calibration standards of 0.2-1000 ng/mL (0.2, 0.5, 1, 2, 5, 10, 50, 100, 500, 1000 ng/mL) in a total volume of 33 μL. Quality Control (QC) samples at 0.5 ng/mL (low-1), 1 ng/mL (low-2), 50 ng/mL (mid), 800 ng/mL (high) for plasma were prepared independently for those used for the calibration curves. These QC samples were prepared on the day of analysis in the same way as calibration standards.

[3] = rat, in vivo; for plasma concentration: male, SD
Description: (§2) The vehicle for the IV, subcutaneous, PO and IN formulation contained “0.1% sodium metabisulfite solution”.
(§3) Male SD rats were purchased from Si Bei Fu Laboratory Animal Technology Co. Ltd (Beijing, China). The animals were about 8 weeks old with body weights of 200-300 g on the dosing date. The animals were housed in a 12-hour light/12-hour dark cycle environment and had free access to food and water. All animals were fasted overnight and fed after 4 hours collection.
(§4) Plasma samples were collected from jugular vein at each time point after IV, subcutaneous, PO and IN administrations.
(§5) About 200 μL of blood samples were collected from each animal via jugular vein. These blood samples were placed into the tubes containing K2EDTA. And centrifugation at 3000 g for 10 minutes in a 4° C. centrifuge. The completion time from collection was less than 30 min. The stabilizing agent of ascorbic acid at 200 mg/mL was added in a proportion of 10% in plasma. The plasma samples were stored in a freezer at −75±15° C. prior to analysis. The completion time from collection was less than 60 min.
(§6) Calibration standard working solutions were prepared at concentrations of 2, 5, 10, 20, 50, 100, 500, 1000, 5000 and 10000 ng/mL by serial dilution of the standard stock solution in 50% acetonitrile in water. Quality control working solutions at concentrations of 5, 10, 20, 500 and 8000 ng/mL were prepared by serial dilution of the standard stock solution in 50% acetonitrile in water. These QC samples were prepared on the day of analysis in the same way as calibration standards.
(§7) For plasma samples, 2 μL of each calibration standard working solution (2, 5, 10, 20, 50, 100, 500, 1000, 5000 and 10000 ng/mL) was added to 20 μL of the blank SD rat plasma (with 10% 200 mg/mL ascorbic acid) to achieve calibration standards of 0.2-1000 ng/mL (0.2, 0.5, 1, 2, 5, 10, 50, 100, 500, 1000 ng/mL) in a total volume of 22 μL. Quality Control (QC) samples at 0.5 ng/mL (low-1), 1 ng/mL (low-2) and 2 ng/mL (low-3), 50 ng/mL (mid), 800 ng/mL (high) for plasma were prepared independently for those used for the calibration curves. These QC samples were prepared on the day of analysis in the same way as calibration standards. The total volumes of 22 μL of standards, 22 μL of QC samples and 22 μL of unknown samples (20 μL of unknown plasma (with 10% 200 mg/mL ascorbic acid) with 2 μL 50% acetonitrile) were added to 200 μL of acetonitrile containing IS to precipitate proteins. Then the samples were vortexed for 30 sec. After centrifugation at 4° C., 4700 rpm for 30 min, and supernatant was diluted 2 times with water, 10 μL of the diluted supernatant was injected into the LC-MS/MS system for quantitative analysis.
All the samples were processed on ice.
(§8) The LC-MS/MS system consisted of two Shimadzu LC-30AD pumps, a DGU-20A5R degasser, a Rack changer II and LCMS-8060 LC/MS/MS instrument mass spectrometer.
(§9) OD-3R Particle size 3 μm 4.6 mm×150 mm column at room temperature. The mobile phase was composed of A: Water (5 mM Ammonium Acetate); B: Ethanol (5 mM Ammonium Acetate). The flow rate was 0.5 mL/min. The injection volume was 10 μL.
(§10) A multiple reaction monitoring (MRM) method was selected for quantitative analysis. […] The instrument parameters were set as follows: ion spray voltage: 8060; heating gas flow: 10 L/min; interface temperature: 250° C.; DL temperature: 220° C.; heat block temperature: 400° C.; drying gas flow: 10 L/min.
(§11) Data acquisition was performed by Lab Solutions version 5.89 Software (Shimadzu). All concentration data was reported with 3 significant figures. Data statistics were performed using Excel 2010 software.
(§12) The linear trapezoidal algorithm was used for AUC calculation.

[4] = Oxidation in liquid solutions; format: physicochemical; settings: in the liquid solutions
[5] = in vivo
Description: Three non-naïve male beagle dogs supplied by Marshall Bioresources (Beijing, China) were used in this study. The animals were confirmed healthy before being assigned to the study. Each animal was given a unique identification number which was marked on ear and written on the cage card. The room(s) were controlled and monitored for relative humidity (targeted mean range 40% to 70%, and any excursion from this range for more than 3 hours will be documented as a deviation) and temperature (targeted mean range 18° C. to 26° C., and any excursion from this range will be documented as a deviation) with 10 to 20 air changes/hour. The rooms were on a 12-hour light/dark cycle except when interruptions are necessitated by study activities.
Animals were fed twice daily. Stock Dogs were fed approximately 220 grams of Certified Dog Diet daily (Beijing Keao Xieli Feed Co., Ltd. Beijing, P. R. China). These amounts could be adjusted as necessary based on food consumption of the group or an individual body weight change. For PO groups, animals were fed at 3:30 to 4:00 pm on the day prior to oral dosing and any remaining food was removed at 7:00 pm. Food was withheld until 4-hour post-dose. Animals were fed once on the day of dosing, with the amount of approximately 220 grams.
Three male non-naïve beagle dogs were assigned to this study. […] The detailed dosing and sampling regimens are described in the following two tables:
PO formulation preparations were processed in study facility on the day of dosing according to instructions provided by the sponsor. The concentrations of compounds in all dosing solutions were determined by HPLC/UV. Two aliquots were taken from each clear and three aliquots were taken from suspension formulations. All formulation samples were stored at 2-8° C. until analyzed by HPLC/UV. All dose formulation samples were analyzed in duplicate using HPLC/UV.
In plasma, approximately 0.5 mL blood was collected at each time point. All blood samples were collected from a peripheral vessel. All blood samples were transferred into commercially available tubes containing Potassium (K2) EDTA on wet ice and processed for plasma. Samples were centrifuged (3,000×g for 10 minutes at 2 to 8° C.) within 30 minutes of collection. After centrifugation, the stabilizing agent was added to the harvested plasma within 60 minutes. The samples were kept on ice and protected from sunlight (under yellow light). The stabilizing agent was ascorbic acid 200 mg/mL added in a proportion of 10% in plasma. The plasma samples were divided into two equal samples with each at least 0.2 ml (0.2*2 mL/sample) and transferred into labeled polypropylene micro-centrifuge tubes and stored frozen in a freezer set to maintain […] or lower until analyzed.
In CSF, about 0.1 mL/time point (50 μL*2 aliquots) of CSF were collected via the catheter implanted in the Cisterna Magna of conscious beagle dogs without any sedation. The procedures for CSF collection and handling were as follows: a polypropylene tube was weighed to accuracy of 0.1 mg (weight #1). CSF was collected and weighed the sample tube again (weight #2). Total CSF weight=weight #2−weight #1. The samples were kept on ice and protected from sunlight (under yellow light). Stabilizing agent was added within 60 minutes. The stabilizing agent was ascorbic acid 200 mg/mL added in a proportion of 10% in CSF. CSF samples were frozen on dry ice and stored at −60° C. or lower until bio-analysis.
For brain samples, different regions of brain were collected. Dogs were anesthetized and euthanasia according to SOP and collected the brain. The striatum, cortex and cerebellum were token rapidly and homogenized immediately (within 30 min) after being harvested. All the samples were stored at −60° C. or lower freezer finally.
For tissue homogenization, the homogenization solution was methanol:10 mM PBS=1:2 and set on dry ice. An empty conical tube was weighed, recorded, and set on dry ice.

[6] = Solubility in aqueous media / aqueous buffer solutions; format: physicochemical; settings: free base, aqueous media at various pH values
[7] = in vivo; settings: male, C57BL/6J, mouse, po, 25 mg/kg; for concentration at […]: […] post last day (Day 4) dose
Description: as §1
The formulation was freshly made prior to use. Preparation of formulation for oral dosing are as follows:
For Group 1 and 2, blood, CSF and brain samples were collected from 3 mice at the following time points.
Plasma samples: About 30 μL or 300 μL of blood samples were collected from each animal via dorsal metatarsal vein or heart. These blood samples were placed into the tubes containing K2EDTA. And centrifugation at 3000 g for 10 minutes in a 4° C. centrifuge. The completion time from collection was less than 30 min. The stabilizing agent of ascorbic acid at 200 mg/mL was added in a proportion of 10% in plasma. The plasma samples were stored in a freezer at −75±15° C. prior to analysis. The completion time from collection was less than 60 min.
Brain and CSF Samples: The animals were fully exsanguinated with a rising concentration of CO2 gas prior to CSF and brain collection.
For CSF collection, make an incision by scissors on the neck of the rats, and the foramen magnum is exposed to the sight of scientist. Use a syringe with a venoclysis needle to sample the CSF, the tip of the needle is insert into the membrane of foramen magnum about 1-2 mm, and then pull the stopcock a small length of the syringe to make a negative pressure, then the CSF fluids to the tube. Watch the fluid in the tube and pull the stopcock slowly, when the amount of the CSF is enough, stop and split the needle and the syringe to ensure there is no negative pressure in the tube. Then cut off the needle and collect the CSF fluid. If we could see the blood in the tube, stop immediately, split the needle and the syringe, and then cut off between the blood and CSF to ensure there is no blood in the CSF fluid. Then collect the CSF fluid. The stabilizing agent of ascorbic acid at 200 mg/mL was added in a proportion of 10% in CSF. The completion time from collection was less than 60 min.
For brain collection. Brain samples were collected at adopted time point, and washed 3 times with cold saline, then dried with clean gauze and put into the weighed tube, quick frozen in ice box and kept at −75±15° C. All brain samples were weighted and homogenized with phosphate buffered saline (PBS) by brain weight (g) to PBS volume (mL) ratio 1:3 before analysis. The stabilizing agent of ascorbic acid at 200 mg/mL was added in a proportion of 10% in Brain homogenate. The actual concentration was the detected value multiplied by the dilution factor. Brain samples were collected at designed time point, quickly homogenized and kept at −75±15° C. The completion time from collection was less than 60 min.
Calibration standard working solutions were prepared at concentrations of 0.2, 0.5, 1, 2, 5, 10, 50, 100, 500, 1000 ng/mL by serial dilution of the standard stock solution. These QC samples were prepared on the day of analysis in the same way as calibration standards.
Plasma: The desired serial concentrations of working solutions were achieved by diluting stock solution of analyte with 50% acetonitrile in water solution. 10 μL of working solutions (0.1, 0.2, 0.5, 1, 2, 5, 10, 50, 100, 500, 1000 ng/mL) were added to 10 μL of the blank C57BL/6J Mice plasma to achieve calibration standards of 0.1˜1000 ng/mL (0.1, 0.2, 0.5, 1, 2, 5, 10, 50, 100, 500, 1000 ng/mL) in a total volume of 20 μL.

[8] = Pharmacokinetic study, single IV, subcutaneous, PO and IN dose, male SD rats (plasma); settings: rat, in vivo
Description: as §2, §3, §4, §5, §6, §7
All the samples were processed on ice.
as §8, §9, §10, §11, §12

[9] = male, beagle, dog, in vivo, po, 10 mg/kg
[10] = male, beagle, dog, in vivo, po, 10 mg/kg, 0.5 h
[11] = single PO 10 mg/kg, 0.500 h, individual animal

Compound: CN1CCc2cccc3c2[C@@H]1Cc1ccc(O)c(O)c1-3
- Kp at 0.5 h [1]: 0.233
- concentration at 0.5 h [1]: 299 ng/g
- AUClast/D [2]: 73.8 mg·h/mL
- plasma concentration ([3]; 0.5 h): 35.7 ng/mL
- plasma concentration ([3]; iv, 0.88 mg/kg, 1 h): 6.23 ng/mL
- animal death related to drug administration [3]: no animal death related to drug administration
- drug-related changes in clinical signs and behavioral responses [3]: no obvious drug-related changes in clinical signs and behavioral responses
- oxidation [4]: significant oxidation
- AUC(0-t) [5, 9]: 86.4 ng·h/mL
- Tlast [5, 9]: 0.500 h
- CSF concentration [5, 10]: 2.71 ng/mL
- Striatum concentration [5, 10]: 145 ng/g
- Kp ([5]; male, beagle, dog, in vivo, po, 10 mg/kg, AUClast ratio of CSF to plasma): 0.00888 ± 0.0031
- Cmax ([5]; male, beagle, dog, in vivo, po, 10 mg/kg, Cmax, plasma, single PO 10 mg/kg, individual animal): 265 ng/mL
- MRT last ([5]; male, beagle, dog, in vivo, po, 10 mg/kg, MRTlast): 19.7 min
- concentration at […] ([5]; male, beagle, dog, in vivo, po, 10 mg/kg, plasma concentration): 255 ng/mL
- concentration at 0.033 h ([5]; male, beagle, dog, in vivo, po, 10 mg/kg, plasma concentration, single PO 10 mg/kg, 119 s, individual animal): 2.92 ng/mL
- Kp at 0.5 h ([5]; male, beagle, dog, in vivo, po, 10 mg/kg, ratio of cerebellum/plasma): 0.505 ± 0.117
- Kp at 0.5 h ([5]; male, beagle, dog, in vivo, po, 10 mg/kg, ratio of cortex/plasma): 0.704 ± 0.184
- Kp at 0.5 h ([5]; male, beagle, dog, in vivo, po, 10 mg/kg, ratio of striatum/plasma): 0.666 ± 0.0544
- Cerebellum concentration [5, 11]: 129 ng/g
- Cortex concentration [5, 11]: 124 ng/g
- Striatum concentration [5, 11]: 137 ng/g
- solubility [6]: low solubilities
- Tmax [7]: 6 min
- AUC(0-t) ([7]; AUClast, plasma, Mean, male C57BL/6J mice, single oral dose 25 mg/kg): 857 ng·h/mL
- concentration at 0.5 h ([7]; Brain concentration, Mean): 65.7 ng/g
- concentration at 1 h ([7]; Brain concentration, Mean): 22.6 ng/g
- concentration at 2 h ([7]; Brain concentration, Mean): 16.8 ng/g
- concentration at 3 h ([7]; Brain concentration, Mean): 11.5 ng/g
- concentration at […] ([7]; Brain concentration, Mean, male C57BL/6J mice, repeated oral dose 25 mg/kg): 2330 ng/g
- concentration at 2 h ([7]; Brain concentration, male C57BL/6J mice, repeated oral dose 25 mg/kg, 2 h post last day (Day 4) dose, G3): 10.9 ng/g
- concentration at […] ([7]; Brain concentration, male C57BL/6J mice, repeated oral dose 25 mg/kg, G3): 1080 ng/g
- concentration at 1 h ([7]; CSF concentration): 3.71 ng/mL
- concentration at 2 h ([7]; CSF concentration): 3.08 ng/mL
- concentration at 4 h ([7]; CSF concentration): 4.08 ng/mL
- concentration at 0.5 h ([7]; CSF concentration, Mean): 7.7 ng/mL
- concentration at 1 h ([7]; CSF concentration, Mean): 3.32 ng/mL
- concentration at 2 h ([7]; CSF concentration, Mean): 3.56 ng/mL
- concentration at 4 h ([7]; CSF concentration, Mean): 3.42 ng/mL
- concentration at […] ([7]; CSF concentration, Mean, male C57BL/6J mice, repeated oral dose 25 mg/kg): 50.2 ng/mL
- concentration at […] ([7]; CSF concentration, male C57BL/6J mice, repeated oral dose 25 mg/kg, G2): 178 ng/mL
- concentration at 1 h ([7]; CSF concentration, male C57BL/6J mice, single oral dose 25 mg/kg, 1 h, G3): 3.18 ng/mL
- Cmax [7]: 200 ng/mL
- Cmax ([7]; CSF, Mean, male C57BL/6J mice, single oral dose 25 mg/kg): 56.4 ng/mL
- Cmax ([7]; brain, Mean, male C57BL/6J mice, last day (Day 4) of repeated oral dose 25 mg/kg): 2330 ng/mL
- Cmax ([7]; brain, Mean, male C57BL/6J mice, single oral dose 25 mg/kg): 729 ng/mL
- Cmax ([7]; plasma, Mean, male C57BL/6J mice, last day (Day 4) of repeated oral dose 25 mg/kg): 1360 ng/mL
- Cmax ([7]; plasma, Mean, male C57BL/6J mice, single oral dose 25 mg/kg): 1150 ng/mL
- concentration at 2 h ([7]; Plasma concentration): 100 ng/mL
- concentration at 8 h ([7]; Plasma concentration): 0.765 ng/mL
- concentration at 12 h ([7]; Plasma concentration): 0.198 ng/mL
- concentration at 0.5 h ([7]; Plasma concentration, Mean): 528 ng/mL
- concentration at 1 h ([7]; Plasma concentration, Mean): 235 ng/mL
- concentration at 2 h ([7]; Plasma concentration, Mean): 74.4 ng/mL
- concentration at 3 h ([7]; Plasma concentration, Mean): 72.4 ng/mL
- concentration at 8 h ([7]; Plasma concentration, Mean): 0.87 ng/mL
- concentration at 12 h ([7]; Plasma concentration, Mean): 0.174 ng/mL
- concentration at […] ([7]; Plasma concentration, Mean, male C57BL/6J mice, repeated oral dose 25 mg/kg): 1360 ng/mL
- concentration at 2 h ([7]; Plasma concentration, Mean, male C57BL/6J mice, single oral dose 25 mg/kg, 2 h): 122 ng/mL
- concentration at 1 h ([7]; Plasma concentration, male C57BL/6J mice, repeated oral dose 25 mg/kg, 1 h post last day (Day 4) dose, G1): 112 ng/mL
- concentration at 3 h ([7]; Plasma concentration, male C57BL/6J mice, repeated oral dose 25 mg/kg, 3 h post last day (Day 4) dose, G3): 73.1 ng/mL
- concentration at 8 h ([7]; Plasma concentration, male C57BL/6J mice, repeated oral dose 25 mg/kg, 8 h post last day (Day 4) dose, G3): 1.24 ng/mL
- concentration at […] ([7]; Plasma concentration, male C57BL/6J mice, repeated oral dose 25 mg/kg, G1): 1460 ng/mL
- concentration at […] ([7]; Plasma concentration, male C57BL/6J mice, repeated oral dose 25 mg/kg, G2): 1520 ng/mL
- concentration at […] ([7]; Plasma concentration, male C57BL/6J mice, repeated oral dose 25 mg/kg, G3): 1110 ng/mL
- concentration at 1 h ([7]; Plasma concentration, male C57BL/6J mice, single oral dose 25 mg/kg, 1 h, G2): 162 ng/mL
- concentration at 2 h ([7]; Plasma concentration, male C57BL/6J mice, single oral dose 25 mg/kg, 2 h, G2): 138 ng/mL
- Cl ([8]; iv, 0.88 mg/kg): 209 mL/min/kg
- AUClast/D ([8]; po, […]): 7.39 mg·h/mL
- AUClast/D ([8]; sc, 0.88 mg/kg): 77.3 mg·h/mL
